Experiments:
[1] = system: IL 1-induced release of neutral protease from rabbit articular chondrocytes; test: Inhibition of IL 1-induced release of neutral protease from rabbit articular chondrocytes (% inhibition of protease secretion, azocoll degradation); type: cell-based, rabbit (male New Zealand White); conditions: Oryctolagus cuniculus, Chondrocyte, test compound 10 minutes prior to IL 1, 24 hours after IL 1 stimulation
Experimental: The ability of the compounds of the inventions to inhibit interleukin 1 is measured by the ability of the test compounds to inhibit the IL 1-induced release of neutral protease from rabbit articular chondrocytes.
This assay is carried out as follows:
Isolation of rabbit chondrocytes:
Male New Zealand White rabbits are anesthetized with 50 mg/kg of ketamine (i.m.) and killed by an intracardiac injection of 3 mls of Nembutal. The knee joints of both legs are resected and the articular surfaces are exposed. Cartilage slices are obtained using a scalpel and are placed in a tissue culture dish (100 mm diameter) containing 10 mls of Hank's balanced salt solution (HBSS). The chondrocytes within the cartilage slices are then liberated by a series of enzyme digestions. The slices are incubated for 10 minutes at 37° C. in 0.05% hyaluronidase (Sigma H-3884), rinsed with HBSS and incubated with 0.2% trypsin (Sigma T-2395) for 10 minutes at 37° C. The slices are rinsed again and incubated for 10 minutes at 37° C. with 1.2% collagenase (Sigma C-5138). The slices are then rinsed again with HBSS and resuspended in 10 ml of Ham's F-12 medium containing 10% fetal bovine calf serum (FCS) and 0.2% collagenase and incubated overnight at 37° C. in a 5% CO2 incubator. The next day, the medium containing the digested cartilage fragments and liberated chondrocytes is transferred to a 15 ml centrifuge tube and the cells are collected by centrifugation and washed twice and resuspended in Ham's F-12 medium. The cells are then plated into 24-well tissue culture plates (2×10^5 cells/well) and incubated at 37° C. until confluent (usually 4-6 days).
Stimulation of chondrocytes and drug treatment
The confluent chondrocytes are rinsed twice with serum-free Ham's F-12 medium and 1 ml is added to each well. Fifty μl of purified human IL 1 (100 Units/ml; Genzyme Corporation, Boston, MA) is then added to stimulate these cells to secrete neutral protease. To measure drug effects, the cells are treated with test compound 10 minutes prior to additon of IL 1. The standard screening dose is 10 μM. Twenty-four hours after IL 1 stimulation, supernatant fluids are collected and assayed for neutral protease activity.
The neutral protease activity of chondrocyte supernatant fluids is determined by their ability to degrade an insoluble protease substrate, azocoll (Sigma). Supernatants are treated for 10 minutes at room temperature with 350 μM p-aminophenylmurcuric acetate to activate the latent enzyme. Three hundred μl of supernatant is then mixed with 500 μl of a 20 mg/ml suspension of azocoll and incubated at 37° C. for 18-24 hours with gentle rocking. The mixtures are centrifuged and the amount of substrate hydrolyzed is determined by measuring the absorbance of the supernatant at 520 nm.
Drug effects are calculated as the % change in enzyme activity (absorbance)by supernatants from drug-treated chondrocytes relative to enzyme activity of supernatants from vehicle-treated chondrocytes as follows:
% Inhibition of Protease Secretion= [formula]

[2] = system: IL 1-induced release of neutral protease from rabbit articular chondrocytes; test: as above; type: cell-based, rabbit (male New Zealand White); conditions: Oryctolagus cuniculus, Chondrocyte, test compound 10 minutes prior to IL 1, 24 hours after IL 1 stimulation; remark: listed apart in the source

SMILES | inhibition at 10 µM [1] [%] | inhibition at 0.1 µM [2] [%] | inhibition at 1 µM [2] [%] | inhibition at 5 µM [2] [%]
Clc1ccc2c(Cl)c3c(nc2c1)CCSC3 [Example 1A, 7,10-Dichloro-3,4-dihydro-1H-thiopyrano[4,3-b]quinoline] | 35 ± 11 | – | – | –
Clc1ccc2c(NNc3ccccc3)c3c(nc2c1)CCSC3 [Example 1B, 7-Chloro-3,4-dihydro-10-(2-phenylhydrazino)-1H-thiopyrano[4,3-b]quinoline] | 98 ± 1 | 67 | 94 | 93 ± 5
CC1CCc2nc3cc(Cl)ccc3c(Cl)c2C1 (stereo not shown) [Example 2A, 6,9-Dichloro-1,2,3,4-tetrahydro-2-methylacridine, quarter hydrate] | 34 ± 26 | – | – | –
CC1CCc2nc3cc(Cl)ccc3c(NNc3ccccc3)c2C1 (stereo not shown) [Example 2B, 6-Chloro-1,2,3,4-tetrahydro-2-methyl-9-(2-phenylhydrazino)acridine] | 85 ± 6 | – | 36 | –
Clc1ccc2c(Cl)c3c(nc2c1)CCC(c1ccccc1)C3 (stereo not shown) [Example 3A, 6,9-Dichloro-1,2,3,4-tetrahydro-2-phenylacridine, hemihydrate] | ≤ 20 | – | – | –
Clc1ccc2c(NNc3ccccc3)c3c(nc2c1)CCC(c1ccccc1)C3 (stereo not shown) [Example 3B, 6-Chloro-1,2,3,4-tetrahydro-2-phenyl-9-(2-phenylhydrazino)acridine] | 81 ± 2 | – | 27 | –
Clc1c2c(nc3ccccc13)CCSC2 [Example 4, 10-Chloro-3,4-dihydro-1H-thiopyrano[4,3-b]quinoline] | 43 | – | 38 | 46
c1ccc(NNc2c3c(nc4ccccc24)CCSC3)cc1 [Example 5, 3,4-Dihydro-10-(2-phenylhydrazino)-1H-thiopyrano[4,3-b]quinoline, three-quarters hydrate] | 79 ± 14 | – | 37 | 55 ± 22
O=S1(=O)CCc2nc3ccccc3c(Cl)c2C1 [Example 6, 10-Chloro-3,4-dihydro-1H-thiopyrano[4,3-b]quinoline 2,2-dioxide] | 32 | – | – | 19
O=S1(=O)CCc2nc3cc(Cl)ccc3c(Cl)c2C1 [Example 7, 7,10-Dichloro-3,4-dihydro-1H-thiopyrano[4,3-b]quinoline 2,2-dioxide] | 25 | – | 10 | 26
O=S1(=O)CCc2nc3cc(Cl)ccc3c(NNc3ccccc3)c2C1 [Example 8, 7-Chloro-3,4-dihydro-10-(2-phenylhydrazino)-1H-thiopyrano[4,3-b]quinoline 2,2-dioxide] | 16 | – | 3 | 37
COC(=O)C1CCc2nc3cc(Cl)ccc3c(Cl)c2C1 (stereo not shown) [Example 9, 6,9-Dichloro-1,2,3,4-tetrahydro-2-acridinecarboxylic acid methyl ester] | 58 | – | 30 | 53
CCOC(=O)C1CCc2nc3cc(Cl)ccc3c(NNc3ccccc3)c2C1 (stereo not shown) [Example 10, 6-Chloro-1,2,3,4-tetrahydro-9-(2-phenylhydrazino)-2-acridinecarboxylic acid ethyl ester] | 96 | 70 | 91 | –
O=C(O)C1CCc2nc3cc(Cl)ccc3c(Cl)c2C1 (stereo not shown) [Example 11, 6,9-Dichloro-1,2,3,4-tetrahydro-2-acridinecarboxylic acid] | 88 | 58 | 50 | –
O=C(O)C1CCc2nc3cc(Cl)ccc3c(NNc3ccccc3)c2C1 (stereo not shown) [Example 12, 6-Chloro-1,2,3,4-tetrahydro-9-(2-phenylhydrazino)-2-acridinecarboxylic acid hemihydrate] | 68 | 57 | 61 | –

Source: patent US4851536A, “Cyclohexylquinolines as inhibitors of interleukin 1” (American Home Products Corporation, priority 1988, dated 1989)
